The target in assay [1] is human IRAK4 FL (Full Length) (Homo sapiens (Human), UniProt Q9NWZ3). Description: IRAK4 Enzymatic DELFIA Assay, Protocol A. It counts as biochemical. The settings on record: 0.6 mM ATP (KM).
Another assay deals with serum TNF. Put plainly: In Vivo Mouse LPS/D-Gal Challenge Model. As to conditions: oral, serum TNF vs. vehicle. The procedure:
In Vivo Mouse LPS/D-Gal Challenge Model.
Efficacy of IRAK4 compounds of the present invention was also evaluated in an in vivo mouse model of endotoxin induced (Lipopolysaccharide (LPS)) inflammation. See: S. Copeland, H. W. Warren, S. F. Lowry, S. E. Calvano, and D. Remick, Clin. Diagn. Lab. Immnol. 2005, 12(1), 60-67. An exemplary protocol for this in vivo model follows.
Female C57/BL6 mice, 8 to 10 weeks old, are orally administered either vehicle or formulated IRAK-4 compound 1 hour prior to the challenge. Vehicle or IRAK4 compound is administered by oral gavage at a volume of 10 mL/kg. One hour post oral delivery of vehicle or compound, the animals are challenged with an intraperitoneal injection (IP) of a solution containing 1 μg/mL LPS and 80 mg/mL D-gal. Each mouse is injected with […] of the solution, for a final challenge dose of 100 ng LPS and 8 mg D-gal. Ninety minutes post LPS/D-gal challenge, animals are euthanized and blood collected. Blood is allowed to clot at room temperature and serum is separated by centrifugation and stored at −80° C. for analysis. Serum TNF and IL-6 are measured by Meso Scale Discovery (MSD) multiplex platform.
The groups consisted of N=10 animals/group. Naïve animals and vehicle control groups were run with each study. Mean cytokine data was plotted and students T-test was performed to calculate significance (t-test, p<0.05 vs. vehicle) of IRAK4 treated group vs. vehicle treated group. Percent inhibition of cytokine induction was calculated for IRAK4 treated group vs. vehicle treated group.
Table 4 contains data from multiple studies with columns for Compound, Dose in mg/kg (mpk) and % inhibition of serum TNF. In cases where doses of certain compounds were repeated in multiple experiments, the average percent inhibition of TNF and standard deviation is shown in the table.

Assay [2] has as its system collagen-induced arthritis. Put plainly: In Vivo Rat Collagen-Induced Arthritis Model. The settings on record: Lewis rat CIA; for days on which hind paw swelling in CIA rats was significantly reduced (t-test, p<0.05 vs. vehicle): paw volume by plethysmograph. On the procedure:
In Vivo Rat Collagen-Induced Arthritis Model.
Efficacy of IRAK4 compounds of the present invention was also evaluated in a rat in vivo model of rheumatoid arthritis (M. Hegen, J. C. Keith, Jr, M. Collins, C. L. Nickerson-Nutter, Ann. Rheum. Dis. 2008, 67, 1505-1515). An exemplary protocol for this in vivo model follows.
Female Lewis rats, approximately 7 weeks old, were immunized with an emulsion of type II collagen (CII) and incomplete Freund's adjuvant (IFA) on day 0 and received a boost of CII/IFA on day 7. Hind paw volume increase was taken by plethysmograph. Animals were randomly enrolled into treatment groups based on the development of disease. Beginning on day 11 post immunization, rats were enrolled into random treatment groups based on an increase in a single hind paw volume compared to day 7 post immunization baseline measurements.
Ten rats were enrolled per treatment group with the exception of the naive control group, which contained two rats. Day 0 was designated as the first treatment day, and paw measurements are taken daily by plethysmograph. The rats were weighed on a daily basis.
IRAK4 inhibitors are efficacious in the Lewis rat model of collagen-induced arthritis.

This note sets out measurements from patent US11702424B2, “Bicyclic-fused heteroaryl or aryl compounds” (Pfizer Inc., priority 2014, dated 2023).

Sequence of human IRAK4 FL (Full Length) (Q9NWZ3 whole entry): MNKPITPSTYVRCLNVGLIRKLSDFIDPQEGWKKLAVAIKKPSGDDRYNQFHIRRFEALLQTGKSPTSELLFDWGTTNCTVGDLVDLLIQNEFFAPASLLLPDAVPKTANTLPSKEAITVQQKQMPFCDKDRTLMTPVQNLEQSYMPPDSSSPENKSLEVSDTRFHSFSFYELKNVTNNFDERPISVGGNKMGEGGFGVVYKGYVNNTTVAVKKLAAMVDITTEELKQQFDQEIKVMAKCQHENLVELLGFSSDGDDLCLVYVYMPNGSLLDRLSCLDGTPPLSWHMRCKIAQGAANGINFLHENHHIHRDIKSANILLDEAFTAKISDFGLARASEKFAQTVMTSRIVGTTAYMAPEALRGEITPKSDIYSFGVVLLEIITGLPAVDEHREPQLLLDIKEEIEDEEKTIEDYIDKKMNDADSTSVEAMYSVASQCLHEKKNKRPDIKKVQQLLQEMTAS

The molecule `CC(C)Oc1cc2c(OC[C@@H]3C[C@@H](C4(O)COC4)C(=O)N3)nccc2cc1C(N)=O` [Example 193, 1-{[(2S,4S)-4-(3-hydroxyoxetan-3-yl)-5-oxopyrrolidin-2-yl]methoxy}-7-(propan-2-yloxy)isoquinoline-6-carboxamide] gave an IC50 in assay [1] of 238 nM. Consider `COc1cc2c(OC[C@@H]3C[C@](C)(F)C(=O)N3)cccc2cc1C(N)=O` [Example 194, 5-{[(2S,4S)-4-fluoro-4-methyl-5-oxopyrrolidin-2-yl]methoxy}-3-methoxynaphthalene-2-carboxamide], for which the “% inhib TNF” value in the assay with serum TNF (dose 30 mpk) was found to be 76%. Turning to `COc1cc2c(OC[C@@H]3CCC(=O)N3)cccc2cc1C(N)=O` [Example 173, 3-methoxy-5-{[(2S)-5-oxopyrrolidin-2-yl]methoxy}naphthalene-2-carboxamide], the “% inhib TNF” value with serum TNF (dose 30 mpk) is on record as 55%; in the assay with serum TNF (dose 100 mpk), 98%. In the case of `CC(C)Oc1cc2c(OC[C@@H]3CCC(=O)N3)nccc2cc1C(N)=O` [Example 26, 1-{[(2S)-5-oxopyrrolidin-2-yl]methoxy}-7-(propan-2-yloxy)isoquinoline-6-carboxamide], the “hind paw swelling (delta paw volume)” value is “transiently significant reduction in hind paw swelling only on Day 5 and Day 6” in assay [2] (10 mg/kg PO, BID); “reduced the hind paw swelling in CIA rats significantly” in assay [2] (therapeutic treatment BID daily for 8 days, t-test p<0.05 vs. vehicle). Also, the “days on which hind paw swelling in CIA rats was significantly reduced (t-test, p<0.05 vs. vehicle)” value in assay [2] (30 mg/kg PO, BID, therapeutic treatment for 8 days) was “Day 2-Day 8”; in assay [2] (100 mg/kg PO, BID, therapeutic treatment for 8 days), “Day 1-Day 8 (end)”. On to `COc1cc2c(OC[C@H]3NC(=O)[C@@H](F)[C@H]3C)nccc2cc1C(N)=O` [Example 189, 1-{[(2S,3S,4S)-4-fluoro-3-methyl-5-oxopyrrolidin-2-yl]methoxy}-7-methoxyisoquinoline-6-carboxamide], for which, in the assay with serum TNF (dose 30 mpk), the “% inhib TNF” value was 40%. Take `Cc1ccc(-n2nc(C(C)(C)C)cc2NC(=O)Nc2ccc(OCCN3CCOCC3)c3ccccc23)cc1` [BIRB796, reference compound]: the “days on which hind paw swelling in CIA rats was significantly reduced (t-test, p<0.05 vs. vehicle)” value in assay [2] (30 mg/kg PO, QD, positive control (p38 inhibitor)) is on record as “Day 1-Day 8”.

In general, IC50 refers to the concentration that inhibits the measured activity by half. Read a low IC50 as higher potency.
